Source: article PMC12499404, “Colloidal Interactions in Simulated Intestinal Fluids: Implications for Oral Drug Delivery at the Nanoscale” (Small Science, 2025)
Values after ≈ are worked out from the molar mass of the structure shown.

Assays:
physchem = format: physicochemical; conditions: 37 °C, pH 6.5, fassif, thermodynamic from solid, apparent solubility
Method: Excess powder (at least 2‐3 times the expected equilibrium solubility) was added to 10 mL preheated simulated intestinal fluids, and the dissolution was monitored until a plateau was reached. […] This is in line with previously reported observations.^[ [26], [27] ^] […] This is likely because of the neutral and more lipophilic properties of felodipine (Table 1), where it is expected to see a larger benefit of the solubilization properties of the formed micelles.
The dissolution and apparent solubilities of two poorly water‐soluble drugs, indomethacin and felodipine, were determined in the simulated intestinal fluids using a MicroDISS Profiler (pION Inc Ltd, East Sussex, UK). In each experiment (n ≥ 3), excess powder (at least 2‐3 times) compared to the expected solubility value was added to 10 mL simulated intestinal fluid. The experiments were performed at 37 °C using a stirring rate of 150 rpm, while the samples were scanned by individual UV probes every 10–30 s. […] The concentrations were determined based on the area under the curve in second derivative spectra evaluated over a range of wavelengths. […] The hydrodynamic size of the simulated intestinal fluids and drugs dissolved in the different simulated intestinal fluids was determined using a Malvern Zetasizer Nano ZSP (Malvern Instruments, Worcestershire, UK) with single‐use disposable microcuvettes. […]

[1] = parameters: method as in PMID 20507160; conditions: cited from earlier work
[2] = cited from earlier work

solubility (physchem) [µg/mL] | SMILES | LogP [1] | Charge (pH 6.5) [1] | CMC [2] [mM]
49.3 ± 1.9 (≈ 128 µM) | CCOC(=O)C1=C(C)NC(C)=C(C(=O)OC)C1c1cccc(Cl)c1Cl (stereo not drawn) [Felodipine, felodipine] | 5.58 | 0 | 
 | COc1ccc2c(c1)c(CC(=O)O)c(C)n2C(=O)c1ccc(Cl)cc1 [Indomethacin, indomethacin] | 3.51 | −1 | 
 | C[C@H](CCC(=O)NCCS(=O)(=O)O)[C@H]1CC[C@H]2[C@@H]3[C@H](O)C[C@@H]4C[C@H](O)CC[C@]4(C)[C@H]3C[C@H](O)[C@]12C [Taurocholic acid, taurocholic acid] |  |  | 3 to 8
